In article PMC6198280, “Chemical Instability and Promiscuity of Arylmethylidenepyrazolinone-Based MDMX Inhibitors” (ACS Chemical Biology, 2018) one finds Kd data, which are given here for one molecule.

The target of the test is T1, MDMX (Homo sapiens, UniProt O15151).
T1 construct: gene MDM4
T1 sequence (O15151 1-120): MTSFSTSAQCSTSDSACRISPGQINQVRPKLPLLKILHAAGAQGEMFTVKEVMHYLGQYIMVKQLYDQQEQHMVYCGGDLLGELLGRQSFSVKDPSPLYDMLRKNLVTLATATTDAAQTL
Nature of the test: ITC; MALDI-TOF MS of covalent adducts, no reducing agent. It is filed as binding. Background: Isothermal titration calorimetry measures the heat released or taken up as one component is titrated into another.

On to `CCOc1cc(/C=C2\C(=O)N(c3ccccc3)N=C2C)cc(Cl)c1OCC(=O)OC` [compound 1, SJ-172550], for which the equilibrium dissociation constant (Kd) (in general, the equilibrium constant for the complex coming apart) was > 13 µM.
